Here are results for seven molecules from patent US4689426A, “5-alkylidene-2-halo-4-substituted-2-cyclopentenone and process for production thereof” (Teijin Limited, priority 1983, dated 1987).

Test [1] has as its system L1210 mouse leukemia cells. To be noted: Biochem. Biophys. Res. Commun., 105, 956 (1982); cited from earlier work.
A further test relates to L1210 leukemia cells. The test can be described thus: Inhibition of proliferation of L1210 leukemia cells. The class given is cell-based. The conditions noted are these: Mus musculus, L1210, 96 h; 4 days at 37° C., trypan blue count of surviving cells. The method, then:
Measurement of the action of inhibiting proliferation of L1210 leukemia cells
L1210 leukemia cells were added to an RPMI medium containing 10% FCS (fetal calf serum), and the concentration of the cells was adjusted to 1×10^5 cells/ml. Each of the test compounds shown in Table 1 was dissolved in 99.5% ethanol. Prior to use, the final concentration of the ethanol solution was adjusted to less than 0.1%, and it was added to the culture medium. The culture medium was then maintained at 37° C. in a stationary condition for 4 days. After the cultivation, the number of surviving cells was measured by dyeing with trypan blue. As a control, 0.1% ethanol was used. A dose-response curve was plotted from the ratios of proliferation against the control, and IC50 was determined.

The test system of a further test is HSV type-1 (KOS). Nature of the test: Inhibition of herpes simplex virus replication in human embryo lung cells, plaque assay on Vero cells. The class given is cell-based, herpes simplex virus type-1 (strain KOS). To be noted: 4 μg/ml, 24 hrs. pretreatment and 24 hrs. after infection; m.o.i. 1; control 1.4 × 10^8; mean of at least three wells. As for the experimental part:
(§1) Measurement of inhibitory activities on herpes simplex virus replication
(§2) To evaluate the inhibitory effect of 2-chloro-4-(3,7-dimethyl-6-octenyl)-5-(6-carbomethoxyhexylidene)-2-cyclopentenone against herpes simplex virus [HSV] replication in vitro, human embryo lung cells [HELR66] were grown in 6-well Falcon plates in Eagle's minimal essential medium [MEM] supplemented with 5 percent fetal calf serum [CS] and antibiotics.
(§3) The test compound was dissolved in absolute ethanol and diluted to the appropriate concentrations with culture medium just before use. The cells were incubated at 37° C. in a humidified atmosphere containing 5 percent CO2 and 95 percent air. Confluent monolayers of the cells were treated with 4 μg/ml of the test compound for 24 hrs. before HSV infection. The test compound pretreated cells were infected with HSV type-1 (strain KOS) or HSV type-2 (strain YS-4) at a m.o.i. of 1. After 1 hr. of incubation at 37° C., the cells were further incubated for 24 hrs. with MEM containing with 2 percent CS, antibiotics and 4 μg/ml the test compound. Control media contained the identical concentration of ethanol. HSV infected HEL-R66 cells were harvested with a rubber policeman 24 hrs. after HSV inoculation and stored at -70° C. Titrations were performed by plaque assays on Vero cells.

The subject of a further test is HSV type-2 (YS-4). The test is described as above. Type of test: cell-based, herpes simplex virus type-2 (strain YS-4). The conditions noted are these: 4 μg/ml, 24 hrs. pretreatment and 24 hrs. after infection; m.o.i. 1; control 1.4 × 10^8; mean of at least three wells. As for the experimental part: as §1, §2, §3
Test [2] deals with Ehrlich ascites carcinoma cells. The test can be described thus: Antitumor effect on Ehrlich ascites carcinoma, survival of mice. The class given is in vivo, ICR mice. The conditions noted are these: over the control. The method, then: Measurement of the antitumor effect on Ehrich ascites carcinoma
1×10^5 Ehrlich ascites carcinoma cells were intraperitoneally administered to ICR mice. After the lapse of 24 hours, 30 mg/kg/day or 20 mg/kg/day of 2-chloro-4-butyl-5-(6-carboxyhexylidene)-2-cyclopentenone (E-form) was intraperitoneally administered to the mice for 5 days. The periods of survival of these animals were examined.

The subject of a further test is B. subtilis ATCC 6633. Nature of the test: Antimicrobial activity, serial two-fold dilution. The class given is cell-based. To be noted: Bacillus subtilis, ATCC6633; Gram (+); heart infusion agar. The method, then: (§4) Measurement of the antimicrobial activity against Gram positive and negative bacterium
(§5) One loopful of cell suspension (10^8 cells/ml) was inoculated on heart infusion agar medium containing various levels of a compound of this invention (2-chloro-4-n-butyl-5-(6-carboxyhexylidene)-2-cyclopentenone). The minimum inhibitory concentrations (MIC) was determined by a standard serial two-fold dilution method.

Another test has as its system P. aeruginosa IFO 3445. Nature of the test: Antimicrobial activity, serial two-fold dilution. The class given is cell-based. The conditions noted are these: Pseudomonas aeruginosa, IFO3445; Gram (-); heart infusion agar. As for the experimental part:
as §4, §5

The next test deals with P. vulgaris H × 19. The test can be described thus: Antimicrobial activity, serial two-fold dilution. The class given is cell-based. The conditions noted are these: Proteus vulgaris; Gram (-); heart infusion agar. The method, then: as §4, §5
A further test relates to S. aureus MS 353. Nature of the test: Antimicrobial activity, serial two-fold dilution. The class given is cell-based. To be noted: Staphylococcus aureus, MS353; Gram (+); heart infusion agar. The method, then: as §4, §5

Each structure is given as a SMILES string. In brackets after ≈: the same amount, converted by molar mass.

For `CCCCC[C@H](O)/C=C/[C@H]1C(=O)C[C@H](O)[C@@H]1C/C=C\CCCC(=O)O` [PGD2], the “IC50 of PGD2 on L1210 cells” value in test [1] is listed as 2.4 micrograms/ml.

For the molecule `CCCCC1C=C(Cl)C(=O)/C1=C\CCCCCC(=O)OC` (single isomer, unassigned) [2-chloro-4-butyl-5-(6-methoxycarbonylhexylidene)-2-cyclopentenone], the IC50 with L1210 leukemia cells is less than 0.3 µg/mL.

As for `COC(=O)CCCCCC=C1C(=O)C(Cl)=CC1CCC(C)CCC=C(C)C` (stereo not shown) [2-chloro-4-(3,7-dimethyl-6-octenyl)-5-(6-carbomethoxyhexylidene)-2-cyclopentenone], the Virus yield with HSV type-1 (KOS) is listed as 3.1 × 10^4 pfu/ml; in the test with HSV type-2 (YS-4) it was 5.4 × 10^4 pfu/ml.

`CCCCC1C=C(Br)C(=O)/C1=C/CCCCCC(=O)OC` (single isomer, unassigned) [2-bromo-4-butyl-5-(6-methoxycarbonylhexylidene)-2-cyclopentenone] yielded an IC50 in the test on L1210 leukemia cells of 0.2 µg/mL (≈ 0.56 µM).

`CCCCC1C=C(Br)C(=O)/C1=C\CCCCCC(=O)OC` (single isomer, unassigned) [2-bromo-4-butyl-5-(6-methoxycarbonylhexylidene)-2-cyclopentenone] came in with an IC50 with L1210 leukemia cells of 0.1 µg/mL (≈ 0.28 µM).

With `CCCCC1C=C(Cl)C(=O)/C1=C/CCCCCC(=O)OC` (single isomer, unassigned) [2-chloro-4-butyl-5-(6-methoxycarbonylhexylidene)-2-cyclopentenone], it took 0.1 µg/mL (≈ 0.32 µM) to reach half-maximal inhibition in the test with L1210 leukemia cells (IC50).

`CCCCC1C=C(Cl)C(=O)/C1=C/CCCCCC(=O)O` (stereo not shown) [2-chloro-4-butyl-5-(6-carboxyhexylidene)-2-cyclopentenone]: the “increase of life span (ILS%)” value in test [2] (20 mg/kg/day i.p. for 5 days) was determined as 40.2%; in [2] (30 mg/kg/day i.p. for 5 days) it was 30.7%. Further, the MIC against B. subtilis ATCC 6633 was 6.24 µg/mL (≈ 20.9 µM); with P. aeruginosa IFO 3445 it was 100 µg/mL (≈ 335 µM); with P. vulgaris H × 19, 25 µg/mL (≈ 83.7 µM); in the test on S. aureus MS 353, 100 µg/mL (≈ 335 µM).

For orientation: IC50 means the concentration needed to halve the response being measured. A low value points to greater potency. The MIC is the least concentration at which growth counts as inhibited. Low readings indicate a more susceptible organism, high ones a less susceptible organism.
